For 23 molecules, melting point results are on record in patent publication US20060148858A1, “1, 2-Azole derivatives with hypoglycemic and hypolipidemic activity” (priority 2002, published 2006).

In turn, `CC(C)c1cccc(CC(=O)O)c1OCCCc1cn(-c2ccc(C(F)(F)F)cn2)nc1C(C)C` [Example 357, [3-isopropyl-2-(3-{3-isopropyl-1-[5-(trifluoromethyl)-2-pyridinyl]-1H-pyrazol-4-yl}propoxy)phenyl]acetic acid] showed a melting point of 108 to 109 °C.
For `CCOc1nn(-c2ccc(C(F)(F)F)cc2)cc1CCCOc1ccc(CCC(=O)O)cc1OC` [Example 115, 3-[4-(3-{3-ethoxy-1-[4-(trifluoromethyl)phenyl]-1H-pyrazol-4-yl}propoxy)-3-methoxyphenyl]propanoic acid], the melting point lay within 125 to 126 °C.
With `CCOc1nn(-c2ccc(C(F)(F)F)cn2)cc1CCCOc1ccc(CCC(=O)O)c(OCc2ccccc2)c1` [Example 112, 3-[2-(benzyloxy)-4-(3-{3-ethoxy-1-[5-(trifluoromethyl)-2-pyridinyl]-1H-pyrazol-4-yl}propoxy)phenyl]propanoic acid] the figure was 128 to 130 °C.
`CCc1cnc(-n2cc(CCCOc3c(CC(=O)O)cccc3OC)c(C(C)C)n2)nc1` [Example 276, (2-{3-[1-(5-ethylpyrimidin-2-yl)-3-isopropyl-1H-pyrazol-4-yl]propoxy}-3-methoxyphenyl)acetic acid] showed a melting point of 103 to 104 °C.
Take `CCCCOc1cc(CCC(=O)O)ccc1OCCCc1cn(-c2ccc(C(F)(F)F)cn2)nc1OCC` [Example 165, 3-[3-butoxy-4-(3-{3-ethoxy-1-[5-(trifluoromethyl)-2-pyridyl]-1H-pyrazol-4-yl}propoxy)phenyl]propanoic acid]: the melting point is 92 to 93 °C.
`CCCc1nn(-c2ccc(C(F)(F)F)cn2)cc1CCCCOc1nn(C)cc1CC(=O)O` [Example 61, [1-methyl-3-(4-{3-propyl-1-[5-(trifluoromethyl)-2-pyridinyl]-1H-pyrazol-4-yl}butoxy)-1H-pyrazol-4-yl]acetic acid]: the melting point was 95 to 97 °C.
With `CCCc1nn(-c2ccc(C(F)(F)F)cn2)cc1CCCCOc1nn(-c2ccccc2)cc1CC(=O)O` [Example 66, [1-phenyl-3-(4-{3-propyl-1-[5-(trifluoromethyl)-2-pyridinyl]-1H-pyrazol-4-yl}butoxy)-1H-pyrazol-4-yl]acetic acid] the figure was 114 to 115 °C.
With `CCOc1nn(-c2ccc(C(F)(F)F)cn2)cc1CCCOc1ccccc1CCC(=O)O` [Example 144, 3-[2-(3-{3-ethoxy-1-[5-(trifluoromethyl)-2-pyridyl]-1H-pyrazol-4-yl}propoxy)phenyl]propionic acid] the figure was 93 to 94 °C; with `O=C(O)CCc1cccc(OCc2cn(-c3ccc(C(F)(F)F)cn3)nc2C2CCCCC2)c1` [Example 191, 3-(3-{3-cyclohexyl-1-[5-(trifluoromethyl)-2-pyridyl]-1H-pyrazol-4-yl}methoxyphenyl)propionic acid], 94 to 95 °C; with `CCC(=O)Nc1ccc(-n2cc(CCCOc3c(CC(=O)O)cccc3OC)c(C(C)C)n2)nc1` [Example 266, (3-methoxy-2-{3-[3-isopropyl-1-(5-propanoylamino-2-pyridyl)-1H-pyrazol-4-yl]propoxy}phenyl)acetic acid], 147 to 148 °C.
With `CCCc1nn(-c2ccc(C(F)(F)F)cn2)cc1CCCOc1ccccc1CCC(=O)O` [Example 83, 3-[2-(3-{3-propyl-1-[5-(trifluoromethyl)-2-pyridyl]-1H-pyrazol-4-yl}propoxy)phenyl]propionic acid] the figure was 87 to 88 °C.
Regarding `CCCc1nn(-c2ccc(C(F)(F)F)cn2)cc1CCCCOc1c(CC(=O)O)cccc1OC` [Example 295, [3-methoxy-2-(4-{3-propyl-1-[5-(trifluoromethyl)-2-pyridinyl]-1H-pyrazol-4-yl}butoxy)phenyl]acetic acid], the melting point lay in the range of 111 to 112 °C.
The figure for `CCOc1nn(-c2ccc(C(F)(F)F)cn2)cc1CCOc1ccc(CC(=O)O)cc1` [Example 73, [4-(2-{3-ethoxy-1-[5-(trifluoromethyl)-2-pyridinyl]-1H-pyrazol-4-yl}ethoxy)phenyl]acetic acid] is 142 to 143 °C.
With `CCCc1nn(-c2ccc(C(F)(F)F)cn2)cc1CCCOc1c(CC(=O)O)cnn1C` [Example 321, [1-methyl-5-(3-{3-propyl-1-[5-(trifluoromethyl)-2-pyridinyl]-1H-pyrazol-4-yl}propoxy)-1H-pyrazol-4-yl]acetic acid] the figure was 136 to 138 °C; with `O=C(O)Cc1cccc(OCCCc2cc(-c3ccc(C(F)(F)F)cc3)no2)c1` [Example 3, [3-(3-{3-[4-(trifluoromethyl)phenyl]-5-isoxazolyl}propoxy)phenyl]acetic acid], 126 to 127 °C; with `CCCc1nn(-c2ccc(C(F)(F)F)cn2)cc1CCCCOc1ccc(CCC(=O)O)c(OC)c1` [Example 89, 3-[2-methoxy-4-(4-{3-propyl-1-[5-(trifluoromethyl)-2-pyridyl]-1H-pyrazol-4-yl}butoxy)phenyl]propionic acid], 91 to 92 °C.
The figure for `O=C(O)c1cc(OCCCc2cc(-c3ccc(C(F)(F)F)cc3)no2)nn1-c1ccccc1` [Example 8, 1-phenyl-3-(3-{3-[4-(trifluoromethyl)phenyl]-5-isoxazolyl}propoxy)-1H-pyrazole-5-carboxylic acid] is 145 to 146 °C.
`CCOc1nn(-c2ccc(C(F)(F)F)cn2)cc1CCCOc1cccc(OC)c1CCC(=O)O` [Example 148, 3-[2-(3-{3-ethoxy-1-[5-(trifluoromethyl)-2-pyridyl]-1H-pyrazol-4-yl}propoxy)-6-methoxyphenyl]propionic acid] came in with a melting point of 110 to 111 °C.
Take `CCOc1nn(-c2ccc(C(F)(F)F)cn2)cc1CCCOc1ccc(OC(C)(C)C(=O)O)cc1` [Example 18, 2-[4-(3-{3-ethoxy-1-[5-(trifluoromethyl)-2-pyridyl]-1H-pyrazol-4-yl}propoxy)phenoxy]-2-methylpropionic acid]: the melting point was 91 to 92 °C.
The figure for `CCCc1nn(-c2ccc(C(F)(F)F)cn2)cc1CCCCOc1ccc(CCC(=O)O)c(C)c1` [Example 64, 3-[2-methyl-4-(4-{3-propyl-1-[5-(trifluoromethyl)-2-pyridinyl]-1H-pyrazol-4-yl}butoxy)phenyl]propanoic acid] is 105 to 107 °C; for `CCCc1nn(-c2ccc(C(F)(F)F)cn2)cc1CCCOc1cc(CC(=O)O)ccc1OC` [Example 80, [4-methoxy-3-(3-{3-propyl-1-[5-(trifluoromethyl)-2-pyridinyl]-1H-pyrazol-4-yl}propoxy)phenyl]acetic acid] it is 124 to 126 °C; for `CCC(CC)c1nn(-c2ccc(C(F)(F)F)cn2)cc1CCCOc1c(CC(=O)O)ccnc1C` [Example 348, [3-(3-{3-(1-ethylpropyl)-1-[5-(trifluoromethyl)-2-pyridinyl]-1H-pyrazol-4-yl}propoxy)-2-methyl-4-pyridinyl]acetic acid] it is 78 to 79 °C.
The figure for `CCc1cnn(CC(=O)O)c1OCCCc1cn(-c2ccc(C(F)(F)F)cn2)nc1C(C)C` [Example 328, [4-ethyl-5-(3-{3-isopropyl-1-[5-(trifluoromethyl)-2-pyridinyl]-1H-pyrazol-4-yl}propoxy)-1H-pyrazol-1-yl]acetic acid] is 111 to 112 °C.
